# Measurements taken from US12172988B2, “Anticancer and antifungal splice modulators” (priority 2021, dated 2024).
# Entries after “also recorded” stand apart in the source; their conditions may differ. Like-named read-outs stand apart in the source and are kept apart here.
# Key:
# HCT116 tumor cells = experiment: qPCR structure-splicing profile over the gene panel; type: cell-based, human; details: HCT116, 24 h, 100, 250, 500 nM, compared to 1
# Protocol: HCT116 tumor cells were treated with analogues at 100 nM (light grey), 250 nM (grey), or 500 nM (black) for 24 h and then cellular RNA was isolated and purified for qPCR. Primers were designed to evaluate intron retention or exon skipping, direct responses to splice modulator treatment. Genes evaluated included those involved in splicing regulation (SF3A1, SF3A3, SF3B1, SF3B2), apoptosis (MCL-1L), and protein folding (DNAJB1), relative to the unspliced control GAPDH. For alternative splicing regulator (SF2), primers were designed to evaluate gene expression, which changes in response splice modulator treatment for SF2 relative to the unspliced control GAPDH. (—) denotes untreated cells.
# For these studies, we evaluated the expression of genes involved in splicing regulation (SF3A1, SF3A3, SF3B1, SF3B2), apoptosis (MCL-1L), protein folding (DNAJB1), and cell cycle regulation (AURKA, PLK-1) relative to the unspliced control GAPDH. Primers were designed to evaluate intron retention or exon skipping, direct responses to splice modulator treatment. The master splicing regulator alternative splicing factor (SF2) was also evaluated, with the primers for this gene designed to evaluate overall gene expression, which changes in response to splice modulator treatment.
# From this 4 h study (FIG. 14), a small set of analogs (1, 1b, 1g, 1d, 1e, 1i and 1j) were selected to evaluate if effects on splicing when presented for a longer 24 h period. […] Using identical procedures as that used for 4 h, HCT116 cells were treated with three concentrations (100 nM, 250 nM and 500 nM) of each analog for 24 h. Multiple concentrations were used as a means to check further validate the use of the GI50 concentration in our prior study (FIG. 14). As before, none of the concentrations tested led to significant changes in cell viability over the 24-hour time window, ensuring that changes in gene expression were not due to cell death.
# (§1) Cells were treated with 1 or 1a-1j in media (McCoy's 5a (Life Technologies) supplemented with 10% FBS, 2 mM L-glutamine, and 100 U mL^−1 of penicillin and 100 μg mL^−1 of streptomycin 0.5% DMSO) for 4 h or 24 h. Untreated cells were considered were used as negative control. Total RNA was isolated using mirVana miRNA isolation kit (Life Technologies). A 1 μg sample of RNA was subjected to DNAseI from a TURBO DNA free kit (Life Technologies). The cDNA was prepared by using SuperScript III reverse transcriptase kit (Life Technologies). The amount of unspliced RNA for different genes was determined using Power SYBR Green PCR master mix (Applied Biosystems) by qPCR using specific primers for each gene. qPCR using 2.5 μM of each primer was performed on 5 ng of the obtained cDNA. qPCR conditions were as follows: 95° C. for 10 min for one cycle, then 95° C. for 10 min for one cycle, then 95° C. for 30 s, 55° C. for 60 s, 72° C. for 60 s, for 40 cycles using the MXPro. Quantification cycle (Cq) values were identified for each sample, and then RNA levels were calculated using 2-ΔΔCT method. GAPDH was used as a control for normalization. At least three replicates were conducted for each compound. Namely, all genes explored in this study were evaluated from the same cell cultures. Here, individual cultures were used for each compound explored and at least three replicates were used for each compound. While experimental variation occurred between the different compound treatments, the levels of the different intron retention, exon skipping or RNA expression were collected from the same cellular material. Statistics were calculated using a standard one-way ANOVA; p values were represented so that * signifies p<0.0001. HCT116 were treated with analogs 1-1j ranging from 0.1-5000 nM for 72 hours, then cell viability was measured using the MTS assay. GI50 values and confidence intervals were calculated using GraphPad (Table 12).
# [1] = system: HCT116 colorectal carcinoma cells; experiment: MTS cell viability / cell growth inhibition assay; type: cell-based, human; details: for GI50: Homo sapiens, HCT-116, 72 h
# Protocol: With milligram quantities of 1a-1i at hand, we began our studies to evaluate the relative efficacy of each analogue using cell growth inhibition studies in HCT116 colorectal carcinoma cells. As reported in FIG. 3, GI50 values were collected for each analog after a 72 h treatment using the MTS cell viability assay (Table 12). Under these conditions, the natural FD-895 (1), 3S-FD-895 (1a) 17S-FD-895 (1d), 17-methoxy-FD-895 (1e) provided activities of <10 nM.
# HCT-116 cells was cultured in McCoy's 5a (Life Technologies) supplemented with 10% fetal bovine serum (FBS), 2 mM L-glutamine, and 100 U mL^−1 of penicillin and 100 μg mL^−1 of streptomycin at 37° C. in an atmosphere of 5% CO2. Compounds were dissolved in DMSO (MilliporeSigma). Cells were treated with 1-1j in media with ≥0.5% DMSO for 4-72 h.
# Studies were conducted in […] cell culture plates. HCT-116 plated at 5×10^3 cells/well were cultured for 24 h and then treated with analogs 1-1j for 4-72 h, then washed twice with 100 μL PBS. PBS (100 μL) was added to each well, followed by 20 μL of CellTiter Aqueous One Solution (Promega). After 2 h at 37° C., absorbance readings were taken at 490 nm (test wavelength) and 690 nm (reference wavelength). GI50 values were calculated in Prism (GraphPad) using greater 3 replicates.
# as §1
smiles,measurement,setting,value
"CC[C@H](OC)[C@@H](C)[C@H]1O[C@@H]1[C@@H](O)[C@H](C)/C=C/C=C(\C)[C@H]1OC(=O)C[C@H](O)CC[C@@](C)(O)[C@@H](OC(C)=O)/C=C/[C@@H]1C [Analog 1d, 17S-FD-895]",splicing activity over the genes tested,HCT116 tumor cells,modest switch in gene selectivity
same,cell growth inhibitory activity compared to FD-895,[1]; HCT-116 cells,retained potency; also recorded: comparable inhibitor of cell growth as 1
same,GI50,[1]; read-out: GI50 value,2.06 nM
same,GI50,[1]; read-out: GI50 value (text),< 10 nM
"CC[C@H](OC)[C@@H](C)[C@H]1O[C@@H]1[C@@H](O)[C@H](C)/C=C/C=C(\C)[C@H]1OC(=O)C[C@@H](O)CC[C@@](C)(O)[C@@H](OC(C)=O)/C=C/[C@@H]1C [Analog 1g, 3S,17S-FD-895]",fold less effective compared to 1a or 1d,"[1]; HCT116 GI50, compared to 1a or 1d",60 fold
same,fold less active (GI50) than 1,"[1]; HCT116 cell growth inhibition, compared to 1",75 fold
same,GI50,[1]; read-out: GI50 value,131 nM
same,GI50,[1]; read-out: GI50 value (text),130 nM
"CC[C@H](OC)[C@@H](C)[C@@H]1O[C@H]1[C@@H](O)[C@H](C)/C=C/C=C(\C)[C@H]1OC(=O)C[C@H](O)CC[C@@](C)(O)[C@@H](OC(C)=O)/C=C/[C@@H]1C [Analog 1i, 17S,18S,19S-FD-895]",splicing activity over the genes tested,HCT116 tumor cells,drastic reduction in splicing activity
same,GI50,[1]; read-out: GI50 value,446 nM
same,GI50,[1]; read-out: GI50 value (text),450 nM
"CC[C@@H](OC)[C@H](C)[C@H]1O[C@@H]1[C@@H](O)[C@H](C)/C=C/C=C(\C)[C@H]1OC(=O)C[C@H](O)CC[C@@](C)(O)[C@@H](OC(C)=O)/C=C/[C@@H]1C [Analog 1j, 17S,20S,21R-FD-895]",splicing activity over the genes tested,HCT116 tumor cells,splicing profile comparable to 1i
same,GI50,[1]; read-out: GI50 value,262 nM
same,GI50,[1]; read-out: GI50 value (text),260 nM
